Common to all, as to experiment: NCI tumour cell line growth inhibition, 48 h
For assay [1], the system named is HOP-92 NSCLC.
Assay [2] concerns EKVX NSCLC.
For assay [3], the system named is UACC-257 melanoma.
For assay [4], the system named is HCT-15 colon.
Assay [5] concerns SN12C renal.
The subject of assay [6] is LOX IMVI melanoma.
The subject of assay [7] is OVCAR-4 ovarian.
The subject of assay [8] is SF-539 CNS.
In assay [9] the test system is TK-10 renal.
Assay [10] deals with SNB-19 CNS.
Assay [11] deals with NCI-H226 lung.
The subject of assay [12] is HT29 colon.

The values that follow come from PubChem BioAssay (NCI).

The structures appear in SMILES notation.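 These data come from cells grown in 96-well plates and exposed to compound for 48 hours at five concentrations. TGI is the concentration that stops growth completely.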 Where only a bound is given, the exact number is not on record here.

Regarding `COC(=O)C12CCC(C(=O)OC)(Cc3c(c4ccccc4n3S(=O)(=O)c3ccccc3)C1)C2=O` (stereo not given), the TGI in assay [1], in assay [2], in [3], in assay [4], in assay [5] and in assay [6] was over 100 µM throughout. The TGI in assay [7] is over 100 µM; in assay [8] it was over 67.3 µM; in assay [9] it was over 100 µM; in assay [10] it was over 100 µM; in [11] it was over 100 µM; in assay [12] it was over 81 µM.
Turning to `CC(C)(C)OC(=O)N1C(C2=COc3ccccc3O2)=COc2ccccc21`, the TGI in assay [1] was 73.2 µM; in assay [2] it was 52.3 µM; in assay [3] it was 78 µM; in assay [4] it was over 100 µM; in assay [5], over 100 µM; in assay [6] it was 37.3 µM. Besides, the TGI in [7] is over 100 µM; in [8] it was 41.2 µM; in [9], over 100 µM; in [10], over 100 µM; in [11], 88.8 µM; in [12], over 100 µM.
Take `C/C(Cl)=N\OC(=O)Nc1ccc([N+](=O)[O-])cc1`: the TGI in [1] is 5.65 µM; in assay [2], 35.2 µM; in assay [3], 30.9 µM; in [4], 34.2 µM; in [5] it was 35.1 µM; in [6] it was 9.93 µM. Further, the TGI in [7] is 28.2 µM; in assay [8], 31.8 µM; in assay [9], 27.8 µM; in assay [10], 33.1 µM; in [11], over 100 µM; in [12], 38.7 µM.
On to `COC1/C=C\C=C(/C)C(=O)NC2=CC(=O)C=C(C2=O)C(OC)C(C)CC(OC)C(OC)C(C)/C=C(/C)C1OC(N)=O` (stereo not given), for which the TGI in assay [1] was found to be 4.52 µM; in assay [2], 20.9 µM; in assay [3], 19.6 µM; in assay [4] it was 15.4 µM; in [5] it was 19 µM; in [6], 13.8 µM. For the same molecule, the TGI was 21.8 µM in assay [7]; 20.4 µM in [8]; 30.7 µM in [10]; 37 µM in assay [11]; 12.1 µM in assay [12].
Take `NNC(N)=Nc1cccc2ccccc12`: the TGI in assay [1] was 92.4 µM; in assay [2], over 100 µM; in [3], over 100 µM; in [4], over 100 µM; in [5] it was over 100 µM; in [7] it was over 100 µM. Further, the TGI in [8], in [9], in assay [10], in [11] and in [12] was over 100 µM in each case.
On to `C=CCn1c2ccccc2c2c(C)c3cnccc3c(C)c21`, for which the TGI was 29.8 µM in assay [1]; 66.1 µM in [2]; 41.9 µM in assay [3]; over 95.5 µM in assay [4]; over 66.2 µM in assay [5]; 60 µM in assay [6]. Also, the TGI in [7] is 64.2 µM; in assay [8], 44.5 µM; in assay [10] it was over 78.2 µM; in assay [11], 40.3 µM; in assay [12], 124 µM.
Consider `O=c1oc2ncccc2n1Cc1ccc([N+](=O)[O-])cc1`, for which the TGI in assay [1], in assay [2], in [3], in assay [4], in [5] and in assay [6] was over 100 µM throughout. For the same molecule, the TGI in assay [7], in assay [8], in assay [9], in assay [11] and in [12] was over 100 µM each time.
With `CC(C)OP(=O)(OC(C)C)C(C(F)(F)F)C(F)(F)F`, the TGI in assay [1], in assay [2], in [3], in [4], in assay [5] and in [6] was over 100 µM throughout. Further, the TGI in [7], in assay [8], in assay [9], in [10], in assay [11] and in assay [12] was over 100 µM each time.
`CN1CN(c2ccccc2)C2(CCNCC2)C1=O`: the TGI in assay [1], in [2], in [3], in [4], in [5] and in [6] was over 100 µM in each case. Also, the TGI in [7], in assay [8], in assay [9], in [10], in assay [11] and in assay [12] was over 100 µM in each case.
Take `CN(Cc1cnc2nc(N)nc(N)c2n1)c1ccc(C(=O)NC(CCS(=O)(=O)O)C(=O)O)cc1` (stereo not given): the TGI in assay [1], in [2], in assay [3], in [4], in assay [5] and in [6] was over 100 µM in each case. The TGI in [7], in assay [8], in assay [9], in assay [10], in assay [11] and in assay [12] was over 100 µM in each case.
Turning to `CCCCC1Cc2cc(O)ccc2-c2n1c1cc(O)ccc1[n+]2C` (stereo not given) (tested in a mixture with another compound), the TGI is 73.8 µM in [1]; over 100 µM in assay [2]; 80 µM in assay [3]; over 88.3 µM in assay [4]; over 100 µM in assay [5]; over 100 µM in assay [6]. In addition, the TGI is 97.6 µM in [7]; over 100 µM in assay [8]; over 100 µM in [9]; over 39.8 µM in [10]; over 100 µM in assay [11]; over 100 µM in assay [12].
With `O=[N+]([O-])c1cc2n[nH]nc2c2nonc12`, the TGI is over 100 µM in assay [1]; over 100 µM in assay [2]; 63 µM in assay [3]; over 100 µM in [4]; over 100 µM in assay [5]; over 100 µM in assay [6]. The TGI in assay [7] is over 100 µM; in assay [8], 56 µM; in assay [9], over 100 µM; in assay [10] it was over 100 µM; in assay [11] it was 40.9 µM; in assay [12], over 100 µM.
